The source made the active and inactive calls. The calls are words filed in the database; no cut-off is given here.
Assays:
Format in all cases: functional, organism-based
Rattus norvegicus [1] = test: Carcinogenic activity on other sites after oral administration
Rattus norvegicus [2] = test: Compound was tested for carcinogenic activity on ear duct after oral administration of the compound; na denotes not available.
Rattus norvegicus [3] = test: Carcinogenic activity on all sites after oral administration
Rattus norvegicus [4] = test: Carcinogenic activity on liver after oral administration
Rattus norvegicus [5] = test: Compound was tested for carcinogenic activity on mixed data after oral administration of the compound; + denotes four or five active sites.
Rattus norvegicus [6] = test: Carcinogenic activity on ear duct after oral administration
Rattus norvegicus [7] = test: Carcinogenic activity on breast after oral administration of the compound
Rattus norvegicus [8] = test: Tested for carcinogenic activity on breast after oral administration of the compound; - denotes non carcinogenic activity.
Rattus norvegicus [9] = test: Carcinogenic activity on ear duct after oral administration of the compound; - denotes non carcinogenic activity.
Rattus norvegicus [10] = test: Carcinogenic activity on mixed data after oral administration
Rattus norvegicus [11] = test: Carcinogenic activity on liver after oral administration of the compound
Rattus norvegicus [12] = test: Carcinogenic activity after oral administration
Rattus norvegicus [13] = test: Compound was tested for carcinogenic activity on all sites after subcutaneous administration of the compound; + denotes carcinogenic activity
Rattus norvegicus [14] = test: Compound was tested for carcinogenic activity on other sites after subcutaneous administration of the compound; + denotes carcinogenic activity
Rattus norvegicus [15] = test: Carcinogenic activity on all sites after subcutaneous administration
Rattus norvegicus [16] = test: Carcinogenic activity on other sites after subcutaneous administration
Rattus norvegicus [17] = test: Compound was tested for carcinogenic activity on liver after subcutaneous administration of the compound; + denotes carcinogenic activity
Rattus norvegicus [18] = test: Compound was tested for carcinogenic activity on all sites after various routes administration of the compound; + denotes carcinogenic activity.
Rattus norvegicus [19] = test: Compound was tested for carcinogenic activity on liver after various routes administration of the compound; + denotes carcinogenic activity.
Rattus norvegicus [20] = test: Compound was tested for carcinogenic activity on mixed data after various routes administration of the compound; + denotes carcinogenic activity
Rattus norvegicus [21] = test: Compound was tested for carcinogenic activity on breast after various routes administration of the compound; + denotes carcinogenic activity.
Rattus norvegicus [22] = test: Compound was tested for carcinogenic activity on other sites after various routes administration of the compound; + denotes carcinogenic activity.
Rattus norvegicus [23] = test: Compound was tested for carcinogenic activity on ear duct after various routes administration of the compound; + denotes carcinogenic activity.
Rattus norvegicus [24] = test: Compound was tested for carcinogenic activity on other sites after topical administration of the compound; + denotes carcinogenic activity.
Rattus norvegicus [25] = test: Compound was tested for carcinogenic activity on breast after topical administration of the compound; + denotes carcinogenic activity.
Rattus norvegicus [26] = test: Compound was tested for carcinogenic activity on all sites after topical administration of the compound; + denotes carcinogenic activity.
Rattus norvegicus [27] = test: Compound was tested for carcinogenic activity on ear duct after oral administration of the compound; na denotes data not available.
Rattus norvegicus [28] = test: Carcinogenic activity on all sites after intraperitoneal administration
Rattus norvegicus [29] = test: Carcinogenic activity on breast after intraperitoneal administration
Rattus norvegicus [30] = test: Compound was tested for carcinogenic activity on other sites after intraperitoneal administration of the compound; + denotes carcinogenic activity.
Rattus norvegicus [31] = test: Compound was tested for carcinogenic activity on mixed data after subcutaneous administration of the compound; + denotes carcinogenic activity.
Rattus norvegicus [32] = test: Carcinogenic activity on ear duct after subcutaneous administration
Rattus norvegicus [33] = test: Carcinogenic activity on liver after subcutaneous administration
Rattus norvegicus [34] = test: Compound was tested for carcinogenic activity on mixed data after various routes administration of the compound; + denotes carcinogenic activity.
Rattus norvegicus [35] = test: Compound was tested for carcinogenic various routes subcutaneous administration of the compound; + denotes carcinogenic activity.
Rattus norvegicus [36] = test: Compound was tested for carcinogenic activity on mixed data after various routes administration of the compound; + denotes four or five active sites
Rattus norvegicus [37] = test: Compound was tested for carcinogenic activity on liver after oral administration of the compound; na denotes data not available.
Rattus norvegicus [38] = test: Compound was tested for carcinogenic activity on all sites after subcutaneous administration of the compound; + denotes carcinogenic activity.
Rattus norvegicus [39] = test: Compound was tested for carcinogenic activity on ear duct after oral administration of the compound; + denotes carcinogenic activity.

COc1c(N)ccc2c1Cc1ccccc1-2
Activity (Rattus norvegicus [1]): Carcinogenic activity
Activity (Rattus norvegicus [2]): inactive
Activity (Rattus norvegicus [3]): Carcinogenic activity
Activity (Rattus norvegicus [4]): Carcinogenic activity

CC(=O)Nc1ccc(-c2ccccc2)cc1
Activity (Rattus norvegicus [5]): Carcinogenic activity
Activity (Rattus norvegicus [1]): Carcinogenic activity
Activity (Rattus norvegicus [3]): Carcinogenic activity
Activity (Rattus norvegicus [6]): Carcinogenic activity
Activity (Rattus norvegicus [7]): Carcinogenic activity

Nc1ccc2ccccc2c1
Activity (Rattus norvegicus [8]): inactive
Activity (Rattus norvegicus [9]): inactive
Activity (Rattus norvegicus [10]): inactive
Activity (Rattus norvegicus [11]): inactive
Activity (Rattus norvegicus [3]): inactive
Activity (Rattus norvegicus [12]): inactive

Cc1cccc(-c2ccc(N)cc2C)c1
Activity (Rattus norvegicus [13]): Carcinogenic activity
Activity (Rattus norvegicus [14]): Carcinogenic activity

Nc1ccc(-c2ccc(F)cc2)cc1
Activity (Rattus norvegicus [15]): Carcinogenic activity
Activity (Rattus norvegicus [16]): Carcinogenic activity
Activity (Rattus norvegicus [17]): Carcinogenic activity

CC(=O)N(O)c1ccc2c(c1)Cc1ccccc1-2
Activity (Rattus norvegicus [18]): Carcinogenic activity
Activity (Rattus norvegicus [19]): Carcinogenic activity
Activity (Rattus norvegicus [20]): Carcinogenic activity
Activity (Rattus norvegicus [21]): Carcinogenic activity
Activity (Rattus norvegicus [22]): Carcinogenic activity
Activity (Rattus norvegicus [23]): Carcinogenic activity

Nc1ccc2cc3ccccc3cc2c1
Activity (Rattus norvegicus [24]): Carcinogenic activity
Activity (Rattus norvegicus [25]): Carcinogenic activity
Activity (Rattus norvegicus [26]): Carcinogenic activity

COc1cccc(-c2cccc(OC)c2N)c1N
Activity (Rattus norvegicus [27]): inactive

O=C(c1ccccc1)N(O)c1ccc2c(c1)Cc1ccccc1-2
Activity (Rattus norvegicus [28]): Carcinogenic activity
Activity (Rattus norvegicus [29]): Carcinogenic activity
Activity (Rattus norvegicus [30]): Carcinogenic activity

Nc1ccc(-c2ccc(N)cc2)cc1
Activity (Rattus norvegicus [15]): Carcinogenic activity
Activity (Rattus norvegicus [16]): Carcinogenic activity
Activity (Rattus norvegicus [31]): Carcinogenic activity
Activity (Rattus norvegicus [32]): Carcinogenic activity
Activity (Rattus norvegicus [33]): Carcinogenic activity

Nc1ccc2c(c1)Cc1ccccc1-2
Activity (Rattus norvegicus [34]): Carcinogenic activity
Activity (Rattus norvegicus [19]): Carcinogenic activity
Activity (Rattus norvegicus [21]): Carcinogenic activity
Activity (Rattus norvegicus [22]): Carcinogenic activity
Activity (Rattus norvegicus [35]): Carcinogenic activity
Activity (Rattus norvegicus [23]): Carcinogenic activity

O=S(=O)(c1ccccc1)N(O)c1ccc2c(c1)Cc1ccccc1-2
Activity (Rattus norvegicus [28]): Carcinogenic activity
Activity (Rattus norvegicus [29]): Carcinogenic activity
Activity (Rattus norvegicus [30]): Carcinogenic activity

Cc1ccc(C(=O)Nc2ccc(S(=O)(=O)O)c3cc(S(=O)(=O)O)cc(S(=O)(=O)O)c23)cc1NC(=O)c1cccc(NC(=O)Nc2cccc(C(=O)Nc3cc(C(=O)Nc4ccc(S(=O)(=O)O)c5cc(S(=O)(=O)O)cc(S(=O)(=O)O)c45)ccc3C)c2)c1
Activity (Rattus norvegicus [8]): inactive
Activity (Rattus norvegicus [1]): Active
Activity (Rattus norvegicus [9]): inactive
Activity (Rattus norvegicus [3]): Active
Activity (Rattus norvegicus [4]): Active

CC(=O)Nc1ccc2c(c1)Cc1ccccc1-2
Activity (Rattus norvegicus [18]): Carcinogenic activity
Activity (Rattus norvegicus [19]): Carcinogenic activity
Activity (Rattus norvegicus [21]): Carcinogenic activity
Activity (Rattus norvegicus [22]): Carcinogenic activity
Activity (Rattus norvegicus [23]): Carcinogenic activity
Activity (Rattus norvegicus [36]): Carcinogenic activity

CC(=O)Nc1ccc2c(c1)C(=O)c1ccccc1-2
Activity (Rattus norvegicus [27]): inactive
Activity (Rattus norvegicus [3]): Carcinogenic activity
Activity (Rattus norvegicus [4]): Carcinogenic activity
Activity (Rattus norvegicus [7]): Carcinogenic activity

Nc1ccc(Cc2ccc(N)cc2)cc1
Activity (Rattus norvegicus [37]): inactive

CCN(CC)c1ccc(/C=C/c2ccccc2)cc1
Activity (Rattus norvegicus [32]): Carcinogenic activity
Activity (Rattus norvegicus [38]): Carcinogenic activity

CC(=O)Nc1ccc2[nH]c3ccccc3c2c1
Activity (Rattus norvegicus [8]): inactive
Activity (Rattus norvegicus [9]): inactive
Activity (Rattus norvegicus [10]): inactive
Activity (Rattus norvegicus [11]): inactive
Activity (Rattus norvegicus [3]): inactive
Activity (Rattus norvegicus [12]): inactive

CN(C)c1ccc(-c2ccccc2)cc1
Activity (Rattus norvegicus [1]): Carcinogenic activity
Activity (Rattus norvegicus [10]): Carcinogenic activity
Activity (Rattus norvegicus [3]): Carcinogenic activity
Activity (Rattus norvegicus [7]): Carcinogenic activity
Activity (Rattus norvegicus [39]): Carcinogenic activity

ONc1ccc2ccccc2c1
Activity (Rattus norvegicus [28]): Carcinogenic activity
Activity (Rattus norvegicus [30]): Carcinogenic activity

CC(=O)Nc1ccc(-c2ccc(NC(C)=O)cc2C)cc1
Activity (Rattus norvegicus [5]): Carcinogenic activity
Activity (Rattus norvegicus [1]): Carcinogenic activity
Activity (Rattus norvegicus [3]): Carcinogenic activity
Activity (Rattus norvegicus [6]): Carcinogenic activity
Activity (Rattus norvegicus [7]): Carcinogenic activity
